{
  "source": "paper PMC3723632",
  "about": "“A Multi-targeted Drug Candidate with Dual Anti-HIV and Anti-HSV Activity” (PLoS Pathogens, 2013)",
  "format_in_all_cases": "biochemical",
  "key": {"HIV-1 RT": {"molecular_target": "T1, HIV-1 RT (Human immunodeficiency virus type 1 group M subtype B, UniProt P03366)", "T1 construct": "4 µl of recombinant HIV-1 RT", "experiment": "HIV-1 reverse transcriptase assay", "conditions": "dATP (3.2 µM) as competing substrate, poly rU.dA primer/template", "procedure": "[…] In the HSV DNA polymerase assays, the inhibitory effect of adefovir-pp or PMEA-DAPym-pp on herpesvirus DNA polymerase-catalyzed polymerization was also determined in the presence of radiolabeled [^3H]dGTP (1 mCi/ml; 2.8 µM), [^3H]dTTP (1 mCi/ml; 1 µM), or [^3H]dCTP (1 mCi/ml; 2.5 µM) as competing dNTP in the presence of 0.8 µl (5 mM) of the other dNTPs in the reaction mixture as described above. The reaction was started by the addition of 4 µl of recombinant HSV-1 DNA polymerase (kindly provided by M.W. Wathen, at that time at Pfizer, Kalamazoo, MI) or 4 µl of recombinant HIV-1 RT (in 20 mM Tris.HCl, pH 8.0; 1 mM DTT; 0.1 mM EDTA; 0.2 M NaCl; 40% glycerol), and the reaction mixture was incubated for 60 min (HSV-1 DNA polymerase) or 30 min (HIV-1 RT) at 37°C. Then, 1 ml of ice-cold 5% TCA in 0.02 M Na4P2O7.10 H2O was added to terminate the polymerisation reaction, after which the acid-insoluble precipitate (radiolabeled DNA) was captured onto Whatman glass fiber filters (type GF/C; GE Healthcare UK Limited, Buckinghamshire, UK) and further washed with 5% TCA and ethanol to remove free radiolabeled dNTP. Radioactivity was determined in a Perkin Elmer Tri-Carb 2810 TR liquid scintillation counter."}, "HSV DNA polymerase": {"molecular_target": "T2, HSV DNA polymerase (Human herpesvirus 1, UniProt P04293)", "T2 construct": "gift of M.W. Wathen (Pfizer, Kalamazoo, MI)", "experiment": "HSV DNA polymerase assay", "conditions": "for IC50: gapped calf thymus DNA", "procedure": "The reaction mixture (40 µl) for the HSV-1 DNA polymerase and HIV-1 RT assays contained 4 µl of Premix (200 mM Tris.HCl, pH 7.5; 2 mM DTT; 30 mM MgCl2), 4 µl of BSA (5 mg/ml), 1.6 µl of activated calf thymus DNA (1.25 mg/ml), 0.8 µl of dCTP (5 mM), 0.8 µl of dTTP (5 mM), 0.8 µl of dGTP (5 mM), 2 µl of radiolabeled [^3H]dATP (1 mCi/ml) (3.2 µM), 18 µl of H2O, and 4 µl of adefovir-pp or PMEO-DAPym-pp at different concentrations (i.e., 200, 20, 2, and 0.2 µM). In the HSV DNA polymerase assays, the inhibitory effect of adefovir-pp or PMEA-DAPym-pp on herpesvirus DNA polymerase-catalyzed polymerization was also determined in the presence of radiolabeled [^3H]dGTP (1 mCi/ml; 2.8 µM), [^3H]dTTP (1 mCi/ml; 1 µM), or [^3H]dCTP (1 mCi/ml; 2.5 µM) as competing dNTP in the presence of 0.8 µl (5 mM) of the other dNTPs in the reaction mixture as described above. The reaction was started by the addition of 4 µl of recombinant HSV-1 DNA polymerase (kindly provided by M.W. Wathen, at that time at Pfizer, Kalamazoo, MI) or 4 µl of recombinant HIV-1 RT (in 20 mM Tris.HCl, pH 8.0; 1 mM DTT; 0.1 mM EDTA; 0.2 M NaCl; 40% glycerol), and the reaction mixture was incubated for 60 min (HSV-1 DNA polymerase) or 30 min (HIV-1 RT) at 37°C. Then, 1 ml of ice-cold 5% TCA in 0.02 M Na4P2O7.10 H2O was added to terminate the polymerisation reaction, after which the acid-insoluble precipitate (radiolabeled DNA) was captured onto Whatman glass fiber filters (type GF/C; GE Healthcare UK Limited, Buckinghamshire, UK) and further washed with 5% TCA and ethanol to remove free radiolabeled dNTP. Radioactivity was determined in a Perkin Elmer Tri-Carb 2810 TR liquid scintillation counter."}, "[1]": {"molecular_target": "mutant HIV-1 RT enzymes (K65R and K70R)", "experiment": "Mutant HIV-1 RT enzyme inhibition", "conditions": "K65R and K70R mutant HIV-1 RT, data not shown", "procedure": "In all assay systems the drugs were administered prior to, or at the time of, virus infection which is relevant from a microbicidal application viewpoint, for which the drugs are preferentially already present at the time of infection. However, it might well be possible that these drugs are also effective when exposed shortly after virus infection given the DNA polymerase/HIV reverse transcriptase as being one of the intracellular targets of PMEO-DAPym. […] Thus, PMEO-DAPym may have a rather high genetic barrier suppressing a wide variety of clinical HSV and HIV-1 clade isolates, including clinically relevant mutant viruses."}},
  "data": [
    {"smiles": "Nc1cc(OCCOCP(=O)(O)OP(=O)(O)OP(=O)(O)O)nc(N)n1", "note": "[PMEO-DAPym-pp]", "values": [
      {"measurement": "IC50", "setting": "HIV-1 RT", "value": "0.19 ± 0.21", "unit": "µg/mL"},
      {"measurement": "IC50", "setting": "HIV-1 RT; listed as PMEO-DAPym-diphosphate", "value": 0.43, "unit": "µg/mL"},
      {"measurement": "IC50", "setting": "HSV DNA polymerase; [3H]dATP as competing substrate", "value": "0.52 ± 0.03", "unit": "µg/mL"},
      {"measurement": "IC50", "setting": "HSV DNA polymerase; [3H]dCTP as competing substrate", "value": "5.2 ± 4.8", "unit": "µg/mL"},
      {"measurement": "IC50", "setting": "HSV DNA polymerase; [3H]dGTP as competing substrate", "value": "3.1 ± 1.0", "unit": "µg/mL"},
      {"measurement": "IC50", "setting": "HSV DNA polymerase; [3H]dTTP as competing substrate", "value": "5.2 ± 0.3", "unit": "µg/mL"},
      {"measurement": "IC50, incorporation of other [3H]dNTPs", "setting": "HSV DNA polymerase; dCTP, dGTP, dTTP, range", "value": "3.1 to 5.2", "unit": "µg/mL"},
      {"measurement": "IC50", "setting": "[1]", "value": "submicromolar range"}
    ]}
  ]
}
